According to PubChem BioAssay (NCI):
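Test compounds were applied to cells in 96-well plates for 48 hours at 5 doses. TGI: total growth inhibition.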

Assays:
Experiment in all cases: inhibition of tumour cell growth, NCI panel, 48 h
[1] = tested on: SNB-75 CNS
[2] = tested on: DMS 273 small cell lung
[3] = tested on: SN12C renal
[4] = tested on: HOP-62 NSCLC
[5] = tested on: CCRF-CEM leukemia
[6] = tested on: RXF 393 renal
[7] = tested on: NCI-H460 lung
[8] = tested on: HCC-2998 colon
[9] = tested on: HL-60(TB) leukemia
[10] = tested on: DU-145 prostate
[11] = tested on: RXF-631 renal
[12] = tested on: SNB-78 CNS
[13] = tested on: HCT-116 colon
[14] = tested on: BT-549 breast
[15] = tested on: OVCAR-4 ovarian
[16] = tested on: HT29 colon
[17] = tested on: SF-295 CNS
[18] = tested on: NCI-H226 lung
[19] = tested on: PC-3 prostate
[20] = tested on: HOP-92 NSCLC
[21] = tested on: U251 CNS
[22] = tested on: SR leukemia
[23] = tested on: A549 NSCLC
[24] = tested on: M19-MEL melanoma
[25] = tested on: OVCAR-5 ovarian
[26] = tested on: LXFL 529 NSCLC
[27] = tested on: SK-MEL-2 melanoma
[28] = tested on: KM12 colon
[29] = tested on: SF-539 CNS
[30] = tested on: EKVX NSCLC
[31] = tested on: SK-MEL-5 melanoma
[32] = tested on: TK-10 renal
[33] = tested on: MOLT-4 leukemia
[34] = tested on: MCF7 breast
[35] = tested on: HOP-18 NSCLC
[36] = tested on: CAKI-1 renal
[37] = tested on: MALME-3M melanoma
[38] = tested on: SW-620 colon
[39] = tested on: SK-OV-3 ovarian
[40] = tested on: HS 578T breast
[41] = tested on: DMS 114 small cell lung
[42] = tested on: K-562 leukemia
[43] = tested on: KM20L2 colon
[44] = tested on: ACHN renal
[45] = tested on: M14 melanoma
[46] = tested on: 786-0 renal
[47] = tested on: MDA-MB-231 breast
[48] = tested on: IGROV1 ovarian
[49] = tested on: HCT-15 colon
[50] = tested on: NCI/ADR-RES ovarian
[51] = tested on: MDA-N
[52] = tested on: NCI-H522 lung
[53] = tested on: SNB-19 CNS
[54] = tested on: UO-31 renal
[55] = tested on: DLD-1 colon
[56] = tested on: RPMI-8226 leukemia
[57] = tested on: A498 renal
[58] = tested on: OVCAR-8 ovarian
[59] = tested on: SK-MEL-28 melanoma
[60] = tested on: UACC-62 melanoma
[61] = tested on: MDA-MB-435
[62] = tested on: SF-268 CNS
[63] = tested on: COLO 205 colon
[64] = tested on: OVCAR-3 ovarian
[65] = tested on: NCI-H23 lung
[66] = tested on: UACC-257 melanoma
[67] = tested on: XF 498 CNS
[68] = tested on: LOX IMVI melanoma

O=C1/C(=C/c2ccc(Cl)c(Cl)c2)CNC/C1=C\c1ccc(Cl)c(Cl)c1
TGI [1]: 33.9 µM
TGI [2]: 19.2 µM
TGI [3]: 12.9 µM
TGI [4]: 38.8 µM
TGI [5]: 5.68 µM
TGI [6]: 29.5 µM
TGI [7]: 29.1 µM
TGI [8]: 21.7 µM
TGI [9]: > 64.2 µM
TGI [10]: > 100 µM
TGI [11]: > 100 µM
TGI [12]: > 100 µM
TGI [13]: 5.66 µM
TGI [14]: 87.2 µM
TGI [15]: 6.3 µM
TGI [16]: 45.2 µM
TGI [17]: 76.6 µM
TGI [18]: 39.9 µM
TGI [19]: 47.7 µM
TGI [20]: 50.7 µM
TGI [21]: 11.9 µM
TGI [22]: > 24 µM
TGI [23]: 67.1 µM
TGI [24]: > 58.1 µM
TGI [25]: 37.4 µM
TGI [26]: 12.2 µM
TGI [27]: 49.3 µM
TGI [28]: 24.9 µM
TGI [29]: 15.9 µM
TGI [30]: 13.6 µM
TGI [31]: > 70.4 µM
TGI [32]: 80 µM
TGI [33]: 28.3 µM
TGI [34]: 50 µM
TGI [35]: > 91.9 µM
TGI [36]: 24.3 µM
TGI [37]: > 66.5 µM
TGI [38]: 11.9 µM
TGI [39]: 69.6 µM
TGI [40]: 19.3 µM
TGI [41]: > 32.7 µM
TGI [42]: 19.5 µM
TGI [43]: 24.2 µM
TGI [44]: 35.6 µM
TGI [45]: 33.9 µM
TGI [46]: 5.53 µM
TGI [47]: 8.7 µM
TGI [48]: 18.8 µM
TGI [49]: 7.95 µM
TGI [50]: 14.1 µM
TGI [51]: 39.9 µM
TGI [52]: 26.7 µM
TGI [53]: 32.6 µM
TGI [54]: 32.2 µM
TGI [55]: 3.84 µM
TGI [56]: > 49.8 µM
TGI [57]: 32.2 µM
TGI [58]: 16 µM
TGI [59]: 62.9 µM
TGI [60]: 29.1 µM
TGI [61]: 43.7 µM
TGI [62]: 16.4 µM
TGI [63]: 17.3 µM
TGI [64]: 7.54 µM
TGI [65]: 26.9 µM
TGI [66]: 72.8 µM
TGI [67]: 35.9 µM
TGI [68]: 13.5 µM

CCOC(OCC)C(CC)[Se]c1ccccc1 (stereo unspecified)
TGI [1]: > 100 µM
TGI [2]: 28.4 µM
TGI [3]: > 100 µM
TGI [4]: > 100 µM
TGI [5]: > 100 µM
TGI [6]: > 100 µM
TGI [7]: > 100 µM
TGI [8]: > 100 µM
TGI [9]: 19 µM
TGI [11]: > 100 µM
TGI [12]: > 100 µM
TGI [13]: > 100 µM
TGI [15]: > 100 µM
TGI [16]: > 100 µM
TGI [17]: > 100 µM
TGI [18]: > 100 µM
TGI [20]: > 100 µM
TGI [21]: > 100 µM
TGI [22]: 47.7 µM
TGI [23]: > 100 µM
TGI [24]: > 100 µM
TGI [25]: > 100 µM
TGI [26]: > 100 µM
TGI [27]: > 100 µM
TGI [28]: > 100 µM
TGI [29]: > 100 µM
TGI [30]: > 100 µM
TGI [31]: > 100 µM
TGI [32]: > 100 µM
TGI [33]: > 100 µM
TGI [35]: > 100 µM
TGI [36]: > 100 µM
TGI [37]: > 100 µM
TGI [39]: > 100 µM
TGI [41]: 8.89 µM
TGI [42]: > 100 µM
TGI [43]: 38.2 µM
TGI [44]: > 100 µM
TGI [45]: 93.7 µM
TGI [46]: > 100 µM
TGI [48]: > 100 µM
TGI [49]: 35 µM
TGI [52]: 46.2 µM
TGI [53]: > 100 µM
TGI [54]: > 100 µM
TGI [55]: > 100 µM
TGI [56]: 57.5 µM
TGI [57]: > 100 µM
TGI [58]: > 100 µM
TGI [59]: > 100 µM
TGI [60]: > 100 µM
TGI [62]: > 100 µM
TGI [63]: > 100 µM
TGI [64]: > 100 µM
TGI [65]: 73.9 µM
TGI [66]: > 100 µM
TGI [67]: > 100 µM
TGI [68]: 21.6 µM

CCCC(=O)c1ccc(=O)n(C)c1
TGI [1]: > 100 µM
TGI [2]: > 100 µM
TGI [3]: > 100 µM
TGI [4]: > 100 µM
TGI [5]: > 100 µM
TGI [6]: > 100 µM
TGI [7]: > 100 µM
TGI [8]: > 100 µM
TGI [9]: > 100 µM
TGI [11]: > 100 µM
TGI [13]: > 100 µM
TGI [15]: > 100 µM
TGI [16]: > 100 µM
TGI [17]: > 100 µM
TGI [18]: > 100 µM
TGI [20]: > 100 µM
TGI [21]: > 100 µM
TGI [22]: > 100 µM
TGI [23]: > 100 µM
TGI [24]: > 100 µM
TGI [25]: > 100 µM
TGI [26]: > 100 µM
TGI [27]: > 100 µM
TGI [28]: > 100 µM
TGI [29]: > 100 µM
TGI [30]: > 100 µM
TGI [31]: > 100 µM
TGI [32]: > 100 µM
TGI [33]: > 100 µM
TGI [36]: > 100 µM
TGI [37]: > 100 µM
TGI [38]: > 100 µM
TGI [39]: > 100 µM
TGI [41]: > 100 µM
TGI [42]: > 100 µM
TGI [43]: > 100 µM
TGI [44]: > 100 µM
TGI [45]: > 100 µM
TGI [46]: > 100 µM
TGI [48]: > 100 µM
TGI [49]: > 100 µM
TGI [52]: > 100 µM
TGI [53]: > 100 µM
TGI [54]: > 100 µM
TGI [55]: > 100 µM
TGI [56]: > 100 µM
TGI [58]: > 100 µM
TGI [59]: > 100 µM
TGI [60]: > 100 µM
TGI [62]: > 100 µM
TGI [63]: > 100 µM
TGI [64]: > 100 µM
TGI [65]: > 100 µM
TGI [67]: > 100 µM
TGI [68]: > 100 µM
